Data published in ChEMBL document CHEMBL3880418, “Pyripyropene derivative having ACAT2 inhibiting activity and stable to metabolizing enzymes” (2013).

How the values were obtained:
[1] = target: T1, Sterol O-acyltransferase 2 (Mus musculus) (UniProt O88908); experiment: Ratio of compound IC50 to PRD 043 IC50 for ACAT2 in mouse hepatic microsomal membranes; format: cell membranes; settings: Liver, Microsomal Membrane
T1 sequence (whole entry): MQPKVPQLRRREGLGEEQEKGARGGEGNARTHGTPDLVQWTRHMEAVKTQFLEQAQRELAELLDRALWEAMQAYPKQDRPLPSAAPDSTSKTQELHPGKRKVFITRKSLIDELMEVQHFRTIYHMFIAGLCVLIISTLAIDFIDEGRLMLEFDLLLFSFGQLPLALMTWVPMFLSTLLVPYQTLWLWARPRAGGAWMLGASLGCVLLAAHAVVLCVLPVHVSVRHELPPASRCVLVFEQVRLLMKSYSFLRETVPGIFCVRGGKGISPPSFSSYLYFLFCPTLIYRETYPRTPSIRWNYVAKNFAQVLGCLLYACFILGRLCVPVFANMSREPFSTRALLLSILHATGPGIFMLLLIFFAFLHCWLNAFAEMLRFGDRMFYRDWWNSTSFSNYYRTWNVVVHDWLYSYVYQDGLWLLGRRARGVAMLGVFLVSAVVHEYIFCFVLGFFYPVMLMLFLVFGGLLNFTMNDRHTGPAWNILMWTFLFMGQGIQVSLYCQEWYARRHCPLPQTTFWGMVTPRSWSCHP

[2] = Half life in Sprague-Dawley rat liver microsomes at 6 ug/ml by HPLC method; format: ADME

Ratio IC50 [1]	half-life at 6 ug/ml [2] [min]	Compound
< 20	> 540	CC(=O)O[C@H]1CC[C@@]2(C)[C@@H](C[C@H](OC(=O)c3ccc(C#N)cc3)[C@@]3(C)Oc4cc(-c5cccnc5)oc(=O)c4[C@H](O)[C@H]23)[C@]1(C)COC(=O)c1ccccc1
< 20	> 540	CC(=O)OC[C@@]1(C)[C@@H]2C[C@H](OC(=O)c3ccc(C#N)cc3)[C@@]3(C)Oc4cc(-c5cccnc5)oc(=O)c4[C@H](O)[C@@H]3[C@@]2(C)CC[C@@H]1OC(=O)C(C)C
< 20	> 540	CC(=O)O[C@H]1CC[C@@]2(C)[C@@H](C[C@H](OC(=O)c3ccc(C#N)cc3)[C@@]3(C)Oc4cc(-c5cccnc5)oc(=O)c4[C@H](O)[C@H]23)[C@]1(C)COC(=O)C(C)C
< 20	> 540	CC(C)C(=O)OC[C@@]1(C)[C@@H]2C[C@H](OC(=O)c3ccc([N+](=O)[O-])cc3)[C@@]3(C)Oc4cc(-c5cccnc5)oc(=O)c4[C@H](O)[C@@H]3[C@@]2(C)CC[C@@H]1OC(=O)C(C)C
< 20	> 540	Cc1cccc([C@@H]2OC[C@@]3(C)[C@@H]4C[C@H](OC(=O)c5ccc(F)cc5)[C@@]5(C)Oc6cc(-c7cccnc7)oc(=O)c6[C@H](O)[C@@H]5[C@@]4(C)CC[C@@H]3O2)c1
< 5	> 540	COc1cccc(C(=O)O[C@H]2C[C@H]3C(C)(COC(C)=O)[C@@H](OC(C)=O)CC[C@]3(C)[C@H]3[C@@H](O)c4c(cc(-c5cccnc5)oc4=O)O[C@]23C)c1 (single isomer, unassigned)
< 20	> 540	CC(=O)O[C@H]1C[C@H]2[C@](C)(COC(=O)C(C)C)[C@@H](OC(=O)C(C)C)CC[C@]2(C)[C@H]2[C@@H](O)c3c(cc(-c4cccnc4)oc3=O)O[C@]12C
< 1	> 540	CC(C)C(=O)OCC1(C)[C@@H](OC(=O)C(C)C)CC[C@]2(C)[C@H]3[C@@H](O)c4c(cc(-c5cccnc5)oc4=O)O[C@]3(C)[C@@H](OC(=O)c3ccc(C#N)cc3)C[C@@H]12 (single isomer, unassigned)
< 20	> 540	C[C@@]12CO[C@@H](c3ccccc3F)O[C@H]1CC[C@@]1(C)[C@H]2C[C@H](OC(=O)c2ccc(F)cc2)[C@@]2(C)Oc3cc(-c4cccnc4)oc(=O)c3[C@H](O)[C@H]12
< 20	> 540	Cc1ccc([C@@H]2OC[C@@]3(C)[C@@H]4C[C@H](OC(=O)c5ccc(F)cc5)[C@@]5(C)Oc6cc(-c7cccnc7)oc(=O)c6[C@H](O)[C@@H]5[C@@]4(C)CC[C@@H]3O2)c(C)c1
< 20	> 540	C[C@]1(COC(=O)c2ccccc2)[C@@H]2C[C@H](OC(=O)c3ccc(C#N)cc3)[C@@]3(C)Oc4cc(-c5cccnc5)oc(=O)c4[C@H](O)[C@@H]3[C@@]2(C)CC[C@@H]1OC(=O)c1ccccc1
< 20	> 540	Cc1ccc([C@@H]2OC[C@@]3(C)[C@@H]4C[C@H](OC(=O)c5ccc(C#N)cc5)[C@@]5(C)Oc6cc(-c7cccnc7)oc(=O)c6[C@H](O)[C@@H]5[C@@]4(C)CC[C@@H]3O2)cc1
< 20	> 540	CC(=O)O[C@H]1C[C@H]2[C@]3(C)CO[C@@H](c4ccccc4)O[C@H]3CC[C@]2(C)[C@H]2[C@@H](O)c3c(cc(-c4cccnc4)oc3=O)O[C@]12C
< 20	> 540	C[C@@]12CO[C@@H](c3ccccc3)O[C@H]1CC[C@@]1(C)[C@H]2C[C@H](OC(=O)c2ccccc2)[C@@]2(C)Oc3cc(-c4cccnc4)oc(=O)c3[C@H](O)[C@H]12
< 20	> 540	COC(=O)[C@@]1(C)[C@@H](OC(C)=O)CC[C@]2(C)[C@H]3[C@@H](O)c4c(cc(-c5cccnc5)oc4=O)O[C@]3(C)[C@@H](OC(=O)c3ccc(C#N)cc3)C[C@H]21
< 20	> 540	Cc1ccc([C@@H]2OC[C@@]3(C)[C@@H]4C[C@H](OC(=O)c5ccc(C#N)cc5)[C@@]5(C)Oc6cc(-c7cccnc7)oc(=O)c6[C@H](O)[C@@H]5[C@@]4(C)CC[C@@H]3O2)c(C)c1
< 20	> 540	COc1ccccc1[C@@H]1OC[C@@]2(C)[C@@H]3C[C@H](OC(=O)c4ccc(C#N)cc4)[C@@]4(C)Oc5cc(-c6cccnc6)oc(=O)c5[C@H](O)[C@@H]4[C@@]3(C)CC[C@@H]2O1
–	< 60	CC(=O)OCC1(C)[C@@H](OC(C)=O)CC[C@]2(C)[C@H]3[C@@H](O)c4c(cc(-c5cccnc5)oc4=O)O[C@]3(C)[C@@H](OC(=O)c3ccccc3F)C[C@@H]12 (single isomer, unassigned)

Ratio IC50 [1]	half-life at 6 ug/ml [2] [min]	Compound
–	< 60	CC(=O)OCC1(C)[C@@H](OC(C)=O)CC[C@]2(C)[C@H]3[C@@H](O)c4c(cc(-c5cccnc5)oc4=O)O[C@]3(C)[C@@H](OC(=O)c3ccc(C)cc3)C[C@@H]12 (single isomer, unassigned)
< 20	> 540	C[C@@]12CO[C@@H](c3ccccc3)O[C@H]1CC[C@@]1(C)[C@H]2C[C@H](OC(=O)C2CCCCC2)[C@@]2(C)Oc3cc(-c4cccnc4)oc(=O)c3[C@H](O)[C@H]12
< 20	> 540	CC(C)C(=O)OC[C@@]1(C)[C@@H]2C[C@H](OC(=O)C3CCCCC3)[C@@]3(C)Oc4cc(-c5cccnc5)oc(=O)c4[C@H](O)[C@@H]3[C@@]2(C)CC[C@@H]1OC(=O)C(C)C
< 20	> 540	CCCCCC(=O)OC[C@@]1(C)[C@@H]2C[C@H](OC(=O)c3ccc(C#N)cc3)[C@@]3(C)Oc4cc(-c5cccnc5)oc(=O)c4[C@H](O)[C@@H]3[C@@]2(C)CC[C@@H]1OC(=O)CCCCC
< 20	> 540	COc1ccc(C(OC)O[C@H]2C[C@H]3[C@]4(C)CO[C@@H](c5ccccc5)O[C@H]4CC[C@]3(C)[C@H]3[C@@H](O)c4c(cc(-c5cccnc5)oc4=O)O[C@]23C)cc1 (stereo not given in full)
–	< 60	CCc1ccc(C(=O)O[C@H]2C[C@H]3C(C)(COC(C)=O)[C@@H](OC(C)=O)CC[C@]3(C)[C@H]3[C@@H](O)c4c(cc(-c5cccnc5)oc4=O)O[C@]23C)cc1 (single isomer, unassigned)
< 20	> 540	COc1ccccc1[C@@H]1OC[C@@]2(C)[C@@H]3C[C@H](OC(=O)c4ccc(F)cc4)[C@@]4(C)Oc5cc(-c6cccnc6)oc(=O)c5[C@H](O)[C@@H]4[C@@]3(C)CC[C@@H]2O1
< 20	> 540	C[C@@]12CO[C@@H](c3cccc4ccccc34)O[C@H]1CC[C@@]1(C)[C@H]2C[C@H](OC(=O)c2ccc(C#N)cc2)[C@@]2(C)Oc3cc(-c4cccnc4)oc(=O)c3[C@H](O)[C@H]12
< 20	> 540	Cc1cccc(C)c1[C@@H]1OC[C@@]2(C)[C@@H]3C[C@H](OC(=O)c4ccc(C#N)cc4)[C@@]4(C)Oc5cc(-c6cccnc6)oc(=O)c5[C@H](O)[C@@H]4[C@@]3(C)CC[C@@H]2O1
< 20	> 540	Cc1ccc([C@@H]2OC[C@@]3(C)[C@@H]4C[C@H](OC(=O)c5ccc(F)cc5)[C@@]5(C)Oc6cc(-c7cccnc7)oc(=O)c6[C@H](O)[C@@H]5[C@@]4(C)CC[C@@H]3O2)cc1
< 20	–	Cc1cccc([C@@H]2OC[C@@]3(C)[C@@H]4C[C@H](OC(=O)c5ccc(C#N)cc5)[C@@]5(C)Oc6cc(-c7cccnc7)oc(=O)c6[C@H](O)[C@@H]5[C@@]4(C)CC[C@@H]3O2)c1
< 20	> 540	CC(=O)O[C@H]1CC[C@]2(C)[C@H]3[C@@H](O)c4c(cc(-c5cccnc5)oc4=O)O[C@]3(C)[C@@H](OC(=O)c3ccc(C#N)cc3)C[C@H]2[C@@]1(C)C(=O)O
< 20	> 540	C[C@@]12CO[C@@H](c3ccccc3F)O[C@H]1CC[C@@]1(C)[C@H]2C[C@H](OC(=O)c2ccc(C#N)cc2)[C@@]2(C)Oc3cc(-c4cccnc4)oc(=O)c3[C@H](O)[C@H]12
< 20	> 540	Cc1ccccc1[C@@H]1OC[C@@]2(C)[C@@H]3C[C@H](OC(=O)c4ccc(C#N)cc4)[C@@]4(C)Oc5cc(-c6cccnc6)oc(=O)c5[C@H](O)[C@@H]4[C@@]3(C)CC[C@@H]2O1
< 20	> 540	Cc1ccccc1[C@@H]1OC[C@@]2(C)[C@@H]3C[C@H](OC(=O)c4ccc(F)cc4)[C@@]4(C)Oc5cc(-c6cccnc6)oc(=O)c5[C@H](O)[C@@H]4[C@@]3(C)CC[C@@H]2O1
–	< 60	CC(=O)OCC1(C)[C@@H](OC(C)=O)CC[C@]2(C)[C@H]3[C@@H](O)c4c(cc(-c5cccnc5)oc4=O)O[C@]3(C)[C@@H](OC(=O)c3ccccc3C)C[C@@H]12 (single isomer, unassigned)
–	< 60	CC(=O)OCC1(C)[C@@H](OC(C)=O)CC[C@]2(C)[C@H]3[C@@H](O)c4c(cc(-c5cccnc5)oc4=O)O[C@]3(C)[C@@H](OC(=O)c3cccc(Br)c3)C[C@@H]12 (single isomer, unassigned)

Compound	Ratio IC50 [1]	half-life at 6 ug/ml [2] [min]
CC(=O)OCC1(C)[C@@H](OC(C)=O)CC[C@]2(C)[C@H]3[C@@H](O)c4c(cc(-c5cccnc5)oc4=O)O[C@]3(C)[C@@H](OC(=O)C3CCCCC3)C[C@@H]12 (single isomer, unassigned)	–	< 60
